PubChem BioAssay (NCI)
“And” between values parts separate entries of the source, which are not always exact repeats. Equal values may be shown once.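 Dose response: 5 concentrations. Exposure: 48 h. Format: 96-well plates. Endpoint: linear interpolation; highest concentration if not reached. At the GI50, growth is halved. TGI: concentration producing complete growth inhibition.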

Assays:
Experiment in all cases: NCI tumour cell line growth inhibition, 48 h
[1] = tested on: KM12 colon
[2] = tested on: PC-3 prostate
[3] = tested on: NCI/ADR-RES ovarian
[4] = tested on: SR leukemia
[5] = tested on: SK-MEL-2 melanoma
[6] = tested on: SN12K1 renal
[7] = tested on: DMS 114 small cell lung
[8] = tested on: HOP-18 NSCLC
[9] = tested on: DMS 273 small cell lung
[10] = tested on: P388 leukemia
[11] = tested on: SNB-78 CNS
[12] = tested on: P388/ADR leukemia
[13] = tested on: RXF-631 renal
[14] = tested on: LXFL 529 NSCLC

Structure (SMILES)	TGI [1]	TGI [2]	TGI [3]	TGI [4]	TGI [5]	TGI [6]	TGI [7]	TGI [8]	TGI [9]	TGI [10]	TGI [11]	TGI [12]	GI50 [1]	GI50 [5]	GI50 [8]	TGI [13]	GI50 [3]	GI50 [14]	TGI [14]
CCn1c(=O)c2c3ccc(O)cc3[nH]c2c2ccc(O)cc21	> 100 µM	> 100 µM	> 100 µM	> 100 µM	–	–	–	–	–	–	–	–	–	–	–	–	–	–	–
CC(=O)OC1(C)CC(C)C(=O)C(C(O)CC2CC(=O)NC(=O)C2)C1 (configuration not stated)	0.164 µM and 0.327 µM	0.0852 µM	0.744 µM and 0.341 µM	–	0.806 µM and 0.438 µM	–	–	–	–	–	–	–	–	–	–	–	–	–	–
Nc1n[nH]c(N)n1	> 10000 µM	> 10000 µM	> 10000 µM	9840 µM	> 10000 µM	> 10000 µM	6880 µM	> 10000 µM	6450 µM	4240 µM	> 8560 µM	8070 µM	–	–	–	–	–	–	–
NCCNc1ccc(NCCN)c2c1C(=O)c1c(O)ccc(O)c1C2=O	1.24 µM and 0.731 µM	1.64 µM	1.39 µM and 2.84 µM	0.0171 µM	1.31 µM and 1.33 µM	–	–	3.82 µM and 0.77 µM	–	–	–	–	0.105 µM	0.345 µM	0.0263 µM	1.13 µM	0.237 µM	0.105 µM	0.905 µM and 1.03 µM
Oc1ccccc1CNCc1ccccc1O	> 100 µM	> 100 µM	> 100 µM	–	> 100 µM	–	–	–	–	–	–	–	–	–	–	–	–	–	–
CCN(CC)CCCNC(=O)c1ccccc1Nc1c(Cl)cccc1Cl	–	–	–	27.6 µM	–	–	26.2 µM	–	31.1 µM	–	31.7 µM	–	–	–	–	–	–	–	28.8 µM
CCCCCC1CC(C(C)=O)CN1c1ccc(F)cc1 (configuration not stated)	> 100 µM	–	–	> 10 µM	> 100 µM	–	62 µM	82.5 µM	> 100 µM	–	> 100 µM	–	–	–	–	–	–	–	> 100 µM
O=c1[nH]c(Br)nc2n[nH]nc12	> 100 µM	> 100 µM	> 100 µM	> 100 µM	> 100 µM	–	–	–	–	–	–	–	–	–	–	–	–	–	–
CCC/C=C/C=C\C(=O)O[C@@H]1[C@@H](C)[C@]2(O)[C@@H]3C=C(C)C(=O)[C@H]3CC(COC(C)=O)=C[C@H]2[C@@H]2C(C)(C)[C@]12OC(C)=O	106 µM	–	114 µM	–	104 µM	48.8 µM	94.6 µM	109 µM	82.4 µM	9.61 µM	152 µM	300 µM	–	–	–	–	–	–	–
CC(=O)C(C(=O)C(=O)Nc1cc(Cl)c(Cl)cc1Cl)c1csc(N)n1 (configuration not stated)	> 100 µM	–	–	> 100 µM	> 100 µM	–	> 100 µM	–	> 100 µM	–	> 100 µM	–	–	–	–	> 100 µM	–	–	> 100 µM
O=C(N/N=C/c1cc(Cl)cc(Cl)c1[O-])c1ccccc1O.O=C(N/N=C/c1cc(Cl)cc(Cl)c1[O-])c1ccccc1O.[Cu+2]	1.59 µM	–	–	0.511 µM	2.1 µM	–	–	–	–	–	–	–	0.442 µM	0.746 µM	–	–	–	–	–
NC1C2C=CC(C2)C1C(=O)O (configuration not stated)	> 100 µM	> 100 µM	> 100 µM	–	> 100 µM	–	–	–	–	–	–	–	–	–	–	–	–	–	–
